Experiments:
GLP-1R [1] = experiment: BRET / real-time intracellular cAMP response assay, GLP-1R; type: cell-based
From the text: Figure 7 Hypoglycemic action of [Aib8, E22, E30]-GLP-1(7–36) amide was not affected by N55. (a) Sequence alignment of GLP-1(7–36) amide, Ex-4 and mutant peptide. G22 and A30 (purple alphabets) are non-homologous residues between GLP-1(7–36) amide and Ex-4. These residues in GLP-1(7–36) amide were replaced with E (red alphabets), the corresponding residues (blue alphabets) in Ex-4, to generate DPP4-resistant GLP-1 mutant peptide ([Aib8, E22, E30]-GLP-1(7–36) amide). Effect of N55 on cAMP responses to the titration of (b) [Aib8, E22, E30]-GLP-1(7–36) amide and GLP-1′. Values are means ± SEM of triplicate assays from three independent experiments. Dose effect of [Aib8, E22, E30]-GLP-1(7–36) amide on (c) plasma glucose levels and on (d) glucose AUC0–120. Dose effect of N55 on (e) the hypoglycemic response and on (f) glucose AUC0–120 of 16.2 nmol/kg of [Aib8, E22, E30]-GLP-1(7–36) amide. Indicated doses of [Aib8, E22, E30]-GLP-1(7–36) amide and N55 were i.p. administered to group of fasted mice (n = 5) 15 min before the glucose loading (2 g/kg) of the IPGTT. Values are mean ± SEM for groups of five mice. * P < 0.05, ** P < 0.01 and *** P < 0.001 were comparisons of indicated dose of [Aib8, E22, E30]-GLP-1(7–36) amide vs control (c,d). NS, not significant.
The real-time intracellular cAMP assay was performed as previously described.
(§1) Values for each experimental group are presented as mean ± SEM. Statistics were performed using Student’s t-test and one-way analysis of variance (ANOVA). Significance levels shown in the figures are: * P < 0.05, ** P < 0.01 and *** P < 0.001 as well as ^# P < 0.05, ^## P < 0.01 and ^### P < 0.001. A P-value of less than 0.05 was considered significant. Student’s t-test that is used to compare the means of two groups and one-way ANOVA is used to compare the means of more than two groups. Five mice per group were used for the in vivo studies. The in vivo studies were performed at least twice. The in vitro assays were triplicates of three independent experiments.

fasted mice = experiment: IPGTT, fasted mice (plasma glucose, glucose AUC0–120); type: in vivo, Female C57BL/6 mice
From the text: (§2) All animal procedures were approved by the Institute of Biomedical Sciences Animal Care and Use Committee (Academia Sinica, Taiwan). The Experimental Animal Committee, Academia Sinica, Taiwan approved all animal experimental procedures. All animals were carefully looked after to ensure that their welfare were well looked after. Additionally, all the experimental procedures and the reagents used in this manuscript have been approved by The Ethic Committee, Academia Sinica. All methods were performed in accordance with the relevant guidelines and regulations by the Institute of Biomedical Sciences Animal Care and Use Committee (Academia Sinica, Taiwan) and The Ethic Committee (Academia Sinica, Taiwan). Female C57BL/6 mice (BioLAS CO, Yi-Lan Breeding Center, Taiwan) aged 8–12 weeks were housed on a 12-h light/12-h dark cycle and provided with food and water ad libitum. The mice were fed with the standard chow (PicoLab Rodent Diet 5053, LabDiet, St. Louis, MO, USA) diet which consisted of 13.2% fat, 24.7% protein, and 62.1% carbohydrates as a source of calories.
All experiments were performed at approximately 1 PM. For the fasted mice, standard chow was removed away at 9 AM on the day of the IPGTT, but were provided water ad libitum for 4 h prior to the beginning of the test. All the administered materials were dissolved in isotonic sodium chloride solution (0.9% sodium chloride) containing 5% ethanol. Vehicle, N55, GLP-1′, [Aib8, E22, E30]-GLP-1(7–36) amide, Ex-4 or Ex-9 alone or in combination were administered by i.p. injection 15 min before D-(+)-glucose (2 g/kg of body weight) i.p. administration. Blood samples were drawn from the tail vein right before glucose loading (time 0) and at 15, 30, 60, 90 and 120 min after glucose administration. Plasma glucose was monitored using a glucometer (Accu-Check Performa, Roche, Basel, Switzerland). Glucose AUC0–120 was calculated during the 120-min time interval from IPGTT results. Glucose AUC0–120 was obtained using the formula AUC0–120 = [15 × (G0 + G15)/2] + [15 × (G15 + G30)/2] + [30 × (G30 + G60)/2] + [30 × (G60 + G90)/2] + [30 × (G90 + G120)/2] where G0, G15, G30, G60, G90 and G120 were blood glucose level at each time point during IPGTT. The decrease in plasma glucose was calculated by subtracting the plasma glucose in the presence of indicated reagent from that in the absence of indicated reagent; ∆ Plasma Glucose (mmol/l) = [plasma glucose at 15 min point obtained in the absence of indicated reagent] − [plasma glucose at 15 min point obtained in the presence of indicated reagent]. The decreased in glucose AUC0–120 was expressed by subtracting the AUC0–120 in the presence of f indicated reagent rom that in the absence of indicated reagent. ∆ AUC0–120 (mmol/l x min) = [AUC0–120 in the absence of indicated reagent] − [AUC0–120 in the presence of indicated reagent].
as §1

GLP-1R [2] = details: cited from earlier work
From the text: Firstly, the hypoglycemic effect of N55 during IPGTT of non-fasted mice requires functional GLP-1R signaling. Secondly, although N55 could not affect the plasma glucose in fasted mice whose endogenous GLP-1 are relatively low (Fig. 2a). […] Thirdly, the hypoglycemic effect and potentiation of insulinotropic effect of GLP-1 required the functional s ... || (+ 1 further places)

non-fasted mice = experiment: IPGTT, non-fasted mice (plasma glucose, glucose AUC0–120); type: in vivo, Female C57BL/6 mice; details: Ex-9 without N55 (1530 without Ex-9), mean, n = 5
From the text: as §2, with “Female C57BL/6 mice (BioLAS CO, Yi-Lan Breeding Center, Taiwan) aged 8–12 weeks were housed on a 12-h light/12-h dark cycle and provided with food and water ad libitum. The mice were fed with the standard chow (PicoLab Rodent Diet 5053, LabDiet, St. Louis, MO, USA) diet which consisted of 13.2% fat, 24.7% protein, and 62.1% carbohydrates as a source of calories.” left out
(§3) All experiments were performed at approximately 1 PM. […] Plasma glucose was monitored using a glucometer (Accu-Check Performa, Roche, Basel, Switzerland). Glucose AUC0–120 was calculated during the 120-min time interval from IPGTT results. […] The decrease in plasma glucose was calculated by subtracting the plasma glucose in the presence of indicated reagent from that in the absence of indicated reagent; ∆ Plasma Glucose (mmol/l) = [plasma glucose at 15 min point obtained in the absence of indicated reagent] − [plasma glucose at 15 min point obtained in the presence of indicated reagent]. […]

mice = experiment: Plasma insulin during IPGTT; type: in vivo, Female C57BL/6 mice
From the text: All animal procedures were approved by the Institute of Biomedical Sciences Animal Care and Use Committee (Academia Sinica, Taiwan). The Experimental Animal Committee, Academia Sinica, Taiwan approved all animal experimental procedures. All animals were carefully looked after to ensure that their welfare were well looked after. Additionally, all the experimental procedures and the reagents used in this manuscript have been approved by The Ethic Committee, Academia Sinica. […]
as §3
Blood samples were collected from the tail vein before any drug administration and at 15 and 60 min after i.p. glucose loading (time 0). […] Plasma insulin levels were determined by a mouse insulin enzyme-linked immunosorbent assay kit (10–1247–01, Mercodia, Sweden) according to the manufacturer’s protocols. […]

[3] = Ex-9 with GLP-1′ 5.4 nmol/kg, with or without N55, n = 5

## [E22, E30] GLP-1 (7–36) amide
GLP-1R [1]; point mutant without Aib8
  activation of receptor by point mutant of GLP-1: retained ability to activate the receptor
  response of point mutant of GLP-1 to N55 in vitro: not responsive to the enhancement of N55 in vitro

## exendin-4 [Ex-4]
Fasted mice; Ex-4 5.4 nmol/kg i.p. (decreased from 1500), mean, n = 5
  glucose AUC0–120: 780 mmol/l x min glucose
Fasted mice; Ex-4 i.p., n = 5
  decrease in glucose level, dose dependence: depended on the dose of Ex-4
  glucose AUCs, dose dependence: decreased as dose of Ex-4 increased
  glucose tolerance: greatly improved the glucose tolerance
GLP-1R [2]
  stimulation of GLP-1R in vitro by Ex-4: stimulated GLP-1R in vitro

## exendin-(9–39) [Ex-9]
non-fasted mice
  glucose AUC0–120: 2070 mmol/l x min glucose
Fasted mice; [3]
  effect of Ex-9 on GLP-1′ glucose lowering and N55 enhancement: completely eliminated the glucose lowering effect of GLP-1′ and the enhancement effect of N55
  glucose AUC0–120 in all Ex-9 treated mice: ~1520 mmol/l x min glucose
  plasma glucose level in Ex-9 treated mice: 22 mmol/L
mice; 15 and 60 min after glucose loading, Ex-9 treated non-fasted and fasted mice
  plasma insulin level with Ex-9: 0.36 to 0.65 µg/L

## HAibEGTFTSDVSSYLEGQAAKEFIAWLVKGR-NH2 [GLP-1′, [Aib8]-GLP-1(7–36) amide, DPP4-resistant GLP-1 peptide]
Fasted mice; GLP-1′ 0.2 nmol/kg alone i.p., n = 5
  glucose tolerance: did not affect the glucose tolerance at all
Fasted mice; GLP-1′ 5.4 nmol/kg + Ex-9, without N55
  contribution to improvement of glucose excursion in presence of Ex-9: non-detectable level
Fasted mice; GLP-1′ 5.4 nmol/kg i.p. without N55, mean, n = 5
  15-min plasma glucose level: 18 mmol/L
Fasted mice; GLP-1′ 5.4 nmol/kg i.p., n = 5
  glucose excursion (AUC0–120): significantly improved
  glucose tolerance: significantly improved the glucose tolerance
Fasted mice; GLP-1′ 5.4 nmol/kg without N55
  contribution of GLP-1′ to improvement of glucose excursion (AUC0–120 with Ex-9 minus without Ex-9): 250 mmol/l x min glucose
Fasted mice; GLP-1′ 5.4 nmol/kg without N55, without Ex-9
  glucose AUC0–120: 1270 mmol/l x min glucose
mice; fasted mice, GLP-1′ without N55, 15 min after glucose loading, mouse insulin ELISA, mean, n = 5
  15-min plasma insulin level: 1.44 µg/L

## HAibEGTFTSDVSSYLEEQAAKEFIEWLVKGR-NH2 [[Aib8, E22, E30]-GLP-1(7–36) amide, DPP4-resistant GLP-1 mutant peptide]
Fasted mice; mutant peptide i.p., n = 5
  glucose AUCs during IPGTT: decreased glucose AUCs
  plasma glucose during IPGTT: dose-dependently lowered the plasma glucose
GLP-1R [1]; titration of peptide with N55, triplicate assays from three independent experiments
  response to N55 (cAMP): failed to respond to N55
GLP-1R [1]; titration, compared with GLP-1′, triplicate assays from three independent experiments
  potency in stimulating GLP-1R (cAMP): displayed comparable potency in stimulating GLP-1R
